Paper PMC6332446, “Acylphloroglucinol Derivatives from the South African Helichrysum niveum and Their Biological Activities” (Molecules, 2015)

Experiments:
[1] = Ferric-ion reducing antioxidant power (FRAP) assay; details: ascorbic acid equivalents; absorbance 593 nm; ± % STDEV
Protocol: Ferric-Ion Reducing Antioxidant Power (FRAP) Assay: Working FRAP reagent was prepared in accordance to the method described previously. Absorbance was measured at 593 nm. L-ascorbic acid was used as a standard and the results were expressed as μM ascorbic acid equivalents per milligram dry weight (μM AAE/g DW) of the test samples.

[2] = Copper-initiated prooxidant activity in the ORAC assay; details: Cu2+ 18 μM without H2O2, 37 °C; one unit = 1% reduction of area under fluorescein decay curve
Protocol: (§1) Automated Oxygen Radicals Absorbance Capacity (ORAC) Assay: ORAC was measured according to the method previously described. The method measures the antioxidant scavenging capacity for (a) peroxyl radicals generated by thermal decomposition of 2,2ʹ-azobis ([…]) dihydrochloride (AAPH; ORACROO assay); (b) hydroxyl radical (ORACOH assay), generated by H2O2-Cu^2+ (H2O2, 0.3%; Cu^2+ [as CuSO4], 18 μM, or (c) Cu^2+ [as CuSO4], 18 μM as a transition metal oxidant at 37 °C. ORAC values were expressed as micromoles of trolox equivalents (TE) per milligram of test sample, except when Cu^2+ (without H2O2) was used as an oxidant in the assay. In the presence of Cu^2+ without H2O2, test samples acted as prooxidants rather than antioxidants in the ORAC assay. The copper-initiated prooxidant activity was calculated using [(AreaBlank − AreaSample)/AreaBlank] × 100 and expressed as prooxidant units; one unit equals the prooxidant activity that reduces the area under the fluorescein decay curve by 1% in the ORAC assay.

[3] = ORAC assay, hydroxyl radical absorbance capacity (ORACOH); details: trolox equivalents; H2O2 0.3%, Cu2+ 18 μM, 37 °C; ± % STDEV
Protocol: as §1

[4] = ORAC assay, peroxyl radical absorbance capacity (ORACROO); details: trolox equivalents; AAPH, 37 °C; ± % STDEV
Protocol: as §1

[5] = Trolox equivalent absorbance capacity (TEAC) assay; details: trolox equivalents; absorbance 734 nm, 25 °C
Protocol: Trolox Equivalent Absorbance Capacity (TEAC) Assay: The total antioxidant capacity of the test samples in terms of TEAC were measured using a previously described method. Absorbance was read at 734 nm at 25 °C in a plate reader and the results were expressed as μM trolox equivalents per milligram dry weight (μM TE/g DW) of the test samples.

[6] = target: Acetylcholinesterase (AChE) (Homo sapiens, UniProt P22303); assay: biochemical; details: 500.00 μg/mL upper concentration limit; read-out: Inhibitory Activities IC50, Acetylcholinesterase (converted)
Acetylcholinesterase (AChE), sequence (P22303 32-614, species assumed): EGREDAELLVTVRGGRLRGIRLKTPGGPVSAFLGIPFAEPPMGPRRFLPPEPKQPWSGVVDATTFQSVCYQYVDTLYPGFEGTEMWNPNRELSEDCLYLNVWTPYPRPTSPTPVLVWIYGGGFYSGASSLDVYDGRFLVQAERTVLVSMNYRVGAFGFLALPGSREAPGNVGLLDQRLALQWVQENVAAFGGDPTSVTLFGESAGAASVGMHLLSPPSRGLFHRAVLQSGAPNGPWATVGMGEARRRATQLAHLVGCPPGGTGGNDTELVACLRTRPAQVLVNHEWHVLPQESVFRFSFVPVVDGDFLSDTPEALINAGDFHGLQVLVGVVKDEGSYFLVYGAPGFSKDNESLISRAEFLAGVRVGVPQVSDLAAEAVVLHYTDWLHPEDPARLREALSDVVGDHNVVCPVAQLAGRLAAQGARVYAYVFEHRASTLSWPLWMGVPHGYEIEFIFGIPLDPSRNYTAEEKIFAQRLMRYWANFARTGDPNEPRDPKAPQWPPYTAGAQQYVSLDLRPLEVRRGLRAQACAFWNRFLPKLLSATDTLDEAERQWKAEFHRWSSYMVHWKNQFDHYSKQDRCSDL
Protocol: Acetylcholinesterase Inhibition Assay: Acetylcholinesterase (AChE) inhibitory activity was measured using Ellman’s method as previously described with minor modifications. AChE catalysis the hydrolysis of acetythiocholine iodide (ACTI as substrate) to thiocholine, which can then react with Ellman’s reagent (DTNB) to produce 5-thio-2-nitrobenzoate (yellow color). In the presence of samples (inhibitors), the release of 5-thio-2-nitrobenzoate (yellow color) is reduced and it is monitored by measuring the absorbance at 450 nm.
In a 96-Well plate, the reaction mixture contains 50 µL of samples pre-incubated with 125 µL of 3 mM 5,5ʹ-Dithiobis-(2-nitrobenzoic acid), and 25 µL AChE (2.0 U/mL), in 50 mM tris-HCl buffer (pH 8.0), with 0.1% bovine serum albumin (BSA) for 15 minutes at 25 °C. Subsequently, 25 µL (15 mM) ACTI was added to the incubation mixture and further incubated for 10 min at 25 °C. […] Absorbance was recorded at 450 nm. The percent AChE inhibitory activity is given by: [A0 − (B − C)]/A0 × 100 (3) where A0 = full enzymatic reaction; B = Activity in the presence of sample; and C = Activity without sample.

Rat liver microsomes = details: Fe2+-induced, TBARs, samples screened at 50.00 μg/mL, ± STDEV
[7] = target: T1, elastase from porcine pancrease (Sus scrofa, UniProt P00772); assay: biochemical; details: SANA substrate; samples screened at 100.00 μg/mL upper limit; read-out: Inhibitory Activities IC50, Elastase (converted)
T1 construct: from tissue; host or cells: porcine pancreas
T1 sequence (P00772 27-266): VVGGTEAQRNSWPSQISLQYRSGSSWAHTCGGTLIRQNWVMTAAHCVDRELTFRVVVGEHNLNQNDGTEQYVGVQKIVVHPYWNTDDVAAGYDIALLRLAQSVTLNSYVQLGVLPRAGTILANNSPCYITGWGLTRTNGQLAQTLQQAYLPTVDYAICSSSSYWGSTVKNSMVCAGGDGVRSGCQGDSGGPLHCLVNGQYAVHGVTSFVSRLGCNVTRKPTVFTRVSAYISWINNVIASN
Protocol: Elastase Inhibition Assay: Inhibition of elastase by the test samples was assayed using N-succyl-(Ala)-3-nitroanilide (SANA) as the substrate, monitoring the release of p-nitroanilide by the method described previously. The inhibitory activity determined the intensity of color released during cleavage of SANA by the action of elastase. Briefly, 1 mM SANA was prepared in 0.1 M Tris-HCl buffer pH 8.0 and 200 μL of this solution was added to the 20 μL of sample solution in a 96-Well plate. The mixtures were vortexed and preincubated for 10 min at 25 °C and then 20 μL of elastase from porcine pancrease (0.03 Units/mL) was added. The mixtures were further incubated for 10 min and the absorbance was measured at 410 nm. Methanol was used as control, while oleanolic acid used as a positive control.

mushroom tyrosinase = assay: Tyrosinase enzyme assay; type: biochemical; details: L-Tyrosine substrate; samples screened at 100.00 μg/mL upper limit
Protocol: Tyrosinase Enzyme Assay: The tyrosinase inhibitory activity was measured using the spectrophotometric method previously described. Samples were dissolved in DMSO to a stock solution of 1 mg/mL, and further dilutions were then done with 50 mM sodium phosphate buffer (pH 6.5) for all working solutions. […] In the wells of a 96-well plate, 70 µL of each sample working solution was combined with 30 μL of tyrosinase (500 Units/mL in sodium phosphate buffer) in triplicate. After incubation at room temperature for 5 min, 110 μL of substrate (2 mM L-Tyrosine) was added to each well. Final concentrations of the crude extract, isolated compounds, and positive control ranged from 1.0–100 μg/mL. Incubation commenced for 30 min at room temperature and the enzyme activity was determined by measuring the absorbance at 490 nm. The percentage of tyrosinase inhibition was calculated as follows: Tyrosinase inhibition (%) = [(A − B) − (C − D)]/(A − B) × 100 (1) where A is the absorbance of the control with the enzyme, B is the absorbance of the control without the enzyme, C is the absorbance of the test sample with the enzyme and D is the absorbance of the test sample without the enzyme.

CCCC(=O)c1c(O)cc(O)c(C/C=C(\C)COC(C)=O)c1O [Compound 8, 1-butanone-3-(3-methylbut-2-enylacetate)-phloroglucinol]
FRAP [1]: 1203.02 ± 2.07 µMAAE/g | Prooxidant (copper-initiated prooxidant activity) [2]: 76.59 ± 0.27 prooxidant units | Hydroxyl (ORACOH) [3]: 16.70 ± 1.25 × 10^6 µMTE/g | Peroxyl (ORAC peroxyl radical absorbance capacity) [4]: 14218.17 ± 12.36 µM TE/g | TEAC [5]: 6757.40 ± 4.69 μM TE/g DW | IC50 [6]: 769 µM | Anti-Lipid peroxidation IC50 (Rat liver microsomes): 27.56 ± 0.63 µg/mL | IC50 [7]: 197 µM | Inhibitory Activities IC50, Tyrosinase (mushroom tyrosinase): >100.00 µg/mL

CC(=O)OC/C(C)=C/Cc1c(O)cc(O)c(C(=O)C(C)C)c1O [Compound 10, caespitate]
FRAP [1]: 1019.28 ± 1.79 µMAAE/g | Prooxidant (copper-initiated prooxidant activity) [2]: 92.31 ± 1.59 prooxidant units | Hydroxyl (ORACOH) [3]: 16.26 ± 15.39 × 10^6 µMTE/g | Peroxyl (ORAC peroxyl radical absorbance capacity) [4]: 16735.55 ± 21.72 µM TE/g | TEAC [5]: 8705.14 ± 1.83 μM TE/g DW | IC50 [6]: 777 µM | Anti-Lipid peroxidation IC50 (Rat liver microsomes): 20.50 ± 4.01 µg/mL | IC50 [7]: 182 µM | Inhibitory Activities IC50, Tyrosinase (mushroom tyrosinase): >100.00 µg/mL

CC1(C)CC[C@]2(C)CC=C3[C@](C)(CCC4[C@@]5(C)CC[C@H](O)[C@](C)(CO)C5CC[C@@]34C)C2C1 (stereo partly drawn) [Compound 11, 3β-24-dihydroxyterexer-14-ene]
FRAP [1]: 197.99 ± 3.90 µMAAE/g | Prooxidant (copper-initiated prooxidant activity) [2]: 31.38 ± 7.00 prooxidant units | Hydroxyl (ORACOH) [3]: 0.89 ± 7.34 × 10^6 µMTE/g | Peroxyl (ORAC peroxyl radical absorbance capacity) [4]: 1193.10 ± 1.68 µM TE/g | TEAC [5]: 1323.61 ± 1.76 μM TE/g DW | IC50 [6]: 707 µM | Anti-Lipid peroxidation IC50 (Rat liver microsomes): >50.00 µg/mL | IC50 [7]: > 226 µM | Inhibitory Activities IC50, Tyrosinase (mushroom tyrosinase): >100.00 µg/mL
